Where two headings read alike, the source gives them in different places.

The subject of assay [1] is CFA-induced paw radiant heat hypersensitivity. Nature of the assay: CFA-induced paw radiant heat hypersensitivity. The assay is classed as in vivo. The conditions noted are these: rat; 30 mg/kg, p.o.; last time point 300 min; group mean values, maximum % reversal at any time point. The protocol: Each rat was placed in a test chamber on a warm glass surface and allowed to acclimate for approximately 10 min. A radiant thermal stimulus (beam of light) was focused through the glass onto the plantar surface of each hind paw in turn. The thermal stimulus was automatically shut off by a photoelectric relay when the paw was moved or when the cut-off time was reached (20 sec for radiant heat at ˜5 amps). An initial (baseline) response latency to the thermal stimulus was recorded for each animal prior to the injection of complete Freund's adjuvant (CFA). Twenty-four hours following intraplantar CFA injection, the response latency of the animal to the thermal stimulus was re-evaluated and compared to the animal's baseline response time. […] Post-compound treatment withdrawal latency was assessed at fixed time intervals, typically 30, 60, 120, 180, and 300 min.
The percent reversal (% R) of hypersensitivity was calculated in one of two different ways: 1) using group mean values or 2) using individual animal values. […]
Method 1. For all compounds, the % R of hypersensitivity was calculated using the mean value for groups of animals at each time point according to the following formula: % reversal=[(group treatment response−group CFA response)/(group baseline response−group CFA response)]×100 Results are given for the maximum % reversal observed for each compound at any time point tested. […]

Assay [2] addresses T1, MGL (Rattus norvegicus, UniProt Q8R431).
T1 construct: one g rat brain was homogenized; from tissue; host or cells: rat brain homogenate
T1 sequence (Q8R431 1-303): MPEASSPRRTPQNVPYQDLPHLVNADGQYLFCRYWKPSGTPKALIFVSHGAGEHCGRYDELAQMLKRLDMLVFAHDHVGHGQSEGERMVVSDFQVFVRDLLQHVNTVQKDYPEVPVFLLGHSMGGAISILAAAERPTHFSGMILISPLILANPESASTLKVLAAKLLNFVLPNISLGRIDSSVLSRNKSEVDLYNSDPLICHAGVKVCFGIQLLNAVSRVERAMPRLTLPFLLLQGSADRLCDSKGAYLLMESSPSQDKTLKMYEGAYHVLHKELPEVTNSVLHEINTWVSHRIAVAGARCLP
Nature of the assay: 2-AG accumulation assay in rat brain homogenate. Type of assay: biochemical. The settings on record: compound @1 μM, read-out: Rat Brain 2AG % VehCntrl (%) @1 μM. The procedure, abridged: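 Inhibition of rat MGL was assessed by measuring 2-AG build-up in brain homogenate. After a 15-min preincubation at 37° C., 10 mM CaCl2 was added and the 5 mL reaction ran 15 min more at 37° C. It was quenched with 6 mL 2:1 chloroform/methanol, extracted 2-AG was measured by HPLC/MS, and accumulation with compound was expressed as a percentage of vehicle.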

The target of assay [3] is T2, mutant MGL (Homo sapiens, UniProt Q99685, L169S/L176S).
T2 construct: purified mutant MGL (mut-MGLL 11-313 L179S L186S)
T2 sequence (Q99685 1-303 L169S/L176S): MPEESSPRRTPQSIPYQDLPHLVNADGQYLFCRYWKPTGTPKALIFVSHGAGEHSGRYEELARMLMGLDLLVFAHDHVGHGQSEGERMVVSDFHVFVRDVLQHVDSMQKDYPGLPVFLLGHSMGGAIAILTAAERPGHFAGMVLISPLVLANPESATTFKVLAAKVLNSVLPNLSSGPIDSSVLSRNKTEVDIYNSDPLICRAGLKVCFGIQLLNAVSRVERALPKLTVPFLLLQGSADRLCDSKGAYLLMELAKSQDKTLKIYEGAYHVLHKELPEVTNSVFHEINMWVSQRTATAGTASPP
Nature of the assay: MGL ThermoFluor assay - mutant. Type of assay: binding. The procedure, abridged:
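Thermal shift binding with 0.07 mg/ml L169S/L176S MGL, 100 μM 1,8-ANS, 200 mM NaCl, 0.001% Tween-20, 50 mM PIPES pH 7.0. Heated 40–90 °C at 1 °C/min, fluorescence (em 500 nm) tracked to give Tm; Kd fitted from 11-point concentration–Tm response, qKd when stocks quantified by qNMR.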

Setting [4] is: 0.07 mg/ml mutant MGL, pH=7.0, read-out: MGL mutant ThermoFluor Kd.
[5] abbreviates: compound concentration measured by qNMR, read-out: MGL mutant ThermoFluor qKd (using qNMR conc.).

On to `O=C(c1nccs1)N1CCC(C2CN(C(=O)c3sc4cc(C(F)(F)F)ccc4c3Cl)C2)CC1` [Cpd 29, 4-(1-{[3-Chloro-6-(trifluoromethyl)-1-benzothiophen-2-yl]carbonyl}azetidin-3-yl)-1-(1,3-thiazol-2-ylcarbonyl)piperidine], for which the “Method 1: peak % reversal” value in assay [1] is 17.9%. Besides, the 2-AG accumulation, percent of vehicle control at 1 µM in assay [2] stood at 800%. The Kd in assay [3] (setting [4]) is 0.3 nM; in assay [3] (setting [5]) it was 1.2 nM.
Take `Cc1c(C(=O)N2CC(C3CCN(C(=O)c4nccs4)CC3)C2)sc2cc(C(F)(F)F)ccc12` [Cpd 20, 4-(1-{[3-Methyl-6-(trifluoromethyl)-1-benzothiophen-2-yl]carbonyl}azetidin-3-yl)-1-(1,3-thiazol-2-ylcarbonyl)piperidine]: the “Method 1: peak % reversal” value in assay [1] is −6.7%. In addition, the 2-AG accumulation, percent of vehicle control at 1 µM in assay [2] was 728%. For the same compound, the figures for the Kd in assay [3] (setting [4]) and in assay [3] (setting [5]) were 1 nM and 1.3 nM, respectively.

The values are drawn from US8513423B2 (Janssen Pharmaceutica, NV, priority 2010, dated 2013).
